Measurements as given in paper PMC7979765, “trans-Translation inhibitors bind to a novel site on the ribosome and clear Neisseria gonorrhoeae in vivo” (Nature Communications, 2021).
Converted amounts (≈) assume the structure as drawn. “And” between values parts separate entries of the source, which are not always exact repeats. Equal entries are not always repeated. Where two headings read alike, the source gives them in different places.

Tests used:
[1] = system: Salmonella typhimurium strains TA98 and TA100; format: cell-based
Method: The Ames assay was performed at SRI Biosciences, following the standard protocols established there[55]–[57]. In brief, samples were evaluated for their ability to induce genetic damage using the plate incorporation method with Salmonella typhimurium strains TA98 and TA100 with and without a metabolic activation mixture containing 10% Aroclar-1254-induced rat-liver microsomes (S9). MBX-4132 was tested from a 5 mg/mL DMSO stock solution (the solubility limit), which provided plate concentrations up to 500 µg/plate, with serial dilutions accessing doses as low as 5 µg/plate. MBX-4132 precipitated at the two highest dose levels (500 and 100 µg/plate), but at 50 µg/plate, no precipitation was observed. […] Test articles were considered mutagenic when the mean number of revertant colonies increased in a dose-dependent manner. Some cytotoxicity was observed, but sufficient colonies were formed to allow analysis. […] Data for 2-nitrofluorene and sodium azide (positive controls) and DMSO (negative control) were included for reference.

Neisseria gonorrhoeae = assay: MIC, microbroth dilution, G77L medium; format: cell-based

Nc1ccc2cc3ccccc3cc2c1 [2-Aminoanthracene, reference compound] was tested, and the “Average Mean Revertants/plate” value ([1]; TA98, 2 µg/plate, + S9) was 1206.7 Revertants/plate, the “Mean Revertants/plate” value ([1]; TA98, 2 µg/plate, + S9, replicates) was 1086 Revertants/plate and 1134 Revertants/plate and 1400 Revertants/plate and the “Mean Revertants/plate” value ([1]; TA98, + S9, 2 µg/plate) was 1206.7. The “Average Mean Revertants/plate” value ([1]; TA100, 2 µg/plate, + S9) was 1438.7 Revertants/plate, the “Mean Revertants/plate” value ([1]; TA100, 2 µg/plate, + S9, replicates) was 1428 Revertants/plate and 1389 Revertants/plate and 1499 Revertants/plate and the “Mean Revertants/plate” value ([1]; TA100, + S9, 2 µg/plate) was 1438.7.
For O=[N+]([O-])c1ccc2c(c1)Cc1ccccc1-2 [2-Nitrofluorene, reference compound], the “Average Mean Revertants/plate” value ([1]; TA98, 5 µg/plate, no S9) was 1331.3 Revertants/plate, the “Mean Revertants/plate” value ([1]; TA98, 5 µg/plate, no S9, replicates) was 1220 Revertants/plate and 1245 Revertants/plate and 1529 Revertants/plate and the “Mean Revertants/plate” value ([1]; TA98, without S9, 5 µg/plate) was 1331.3.
With O=C(Nc1nnc(-c2ccc(F)cc2)o1)N1CCc2ccccc2C1 [MBX4132] the MIC (Neisseria gonorrhoeae; strain MMX 6744, single data point, Micromyx) was 0.27 µg/mL (≈ 0.798 µM), the MIC (Neisseria gonorrhoeae; strain MMX 6746, single data point, Micromyx) was 0.14 µg/mL (≈ 0.414 µM) and the MIC (Neisseria gonorrhoeae; strain MMX 6752, single data point, Micromyx) was 0.27 µg/mL (≈ 0.798 µM). It also gave an MIC (Neisseria gonorrhoeae; strain MMX 6753, single data point, Micromyx) of 0.14 µg/mL (≈ 0.414 µM), an MIC (Neisseria gonorrhoeae; strain MMX 6757, single data point, Micromyx) of 0.07 µg/mL (≈ 0.207 µM) and an MIC (Neisseria gonorrhoeae; strain MMX 6758, single data point, Micromyx) of 0.27 µg/mL (≈ 0.798 µM). For the same molecule, the MIC (Neisseria gonorrhoeae; strain MMX 6762, single data point, Micromyx) was 0.27 µg/mL (≈ 0.798 µM), the MIC (Neisseria gonorrhoeae; strain MMX 6767, single data point, Micromyx) was 0.14 µg/mL (≈ 0.414 µM) and the MIC (Neisseria gonorrhoeae; strain MMX 6771, single data point, Micromyx) was 0.14 µg/mL (≈ 0.414 µM). For the same molecule, the MIC (Neisseria gonorrhoeae; strain MMX 6793, single data point, Micromyx) was 0.14 µg/mL (≈ 0.414 µM), the MIC (Neisseria gonorrhoeae; strain MMX 6797, single data point, Micromyx) was 0.14 µg/mL (≈ 0.414 µM) and the MIC (Neisseria gonorrhoeae; strain MMX 6803, single data point, Micromyx) was 0.27 µg/mL (≈ 0.798 µM). The MIC (Neisseria gonorrhoeae; strain MMX 6812, single data point, Micromyx) was 0.27 µg/mL (≈ 0.798 µM), the MIC (Neisseria gonorrhoeae; strain MMX 6818, single data point, Micromyx) was 0.27 µg/mL (≈ 0.798 µM) and the MIC (Neisseria gonorrhoeae; strain MMX 6819, single data point, Micromyx) was 0.14 µg/mL (≈ 0.414 µM). The MIC (Neisseria gonorrhoeae; strain MMX 6879, single data point, Micromyx) was 0.14 µg/mL (≈ 0.414 µM), the MIC (Neisseria gonorrhoeae; strain MMX 6921, single data point, Micromyx) was 0.53 µg/mL (≈ 1.57 µM) and the MIC (Neisseria gonorrhoeae; strain MMX 6922, single data point, Micromyx) was 0.53 µg/mL (≈ 1.57 µM). It also gave an MIC (Neisseria gonorrhoeae; strain MMX 6983, single data point, Micromyx) of 0.53 µg/mL (≈ 1.57 µM), an MIC (Neisseria gonorrhoeae; strain MMX 6989, single data point, Micromyx) of 0.14 µg/mL (≈ 0.414 µM) and an MIC (Neisseria gonorrhoeae; strain MMX 6990, single data point, Micromyx) of 0.14 µg/mL (≈ 0.414 µM). It also gave an MIC (Neisseria gonorrhoeae; strain MMX 6992, single data point, Micromyx) of 0.14 µg/mL (≈ 0.414 µM), an MIC (Neisseria gonorrhoeae; strain MMX 6996, single data point, Micromyx) of 0.27 µg/mL (≈ 0.798 µM) and an MIC (Neisseria gonorrhoeae; strain MMX 6998, single data point, Micromyx) of 0.53 µg/mL (≈ 1.57 µM). The MIC (Neisseria gonorrhoeae; strain MMX 7002, single data point, Micromyx) was 0.27 µg/mL (≈ 0.798 µM), the MIC (Neisseria gonorrhoeae; strain MMX 7005, single data point, Micromyx) was 0.03 µg/mL (≈ 0.0887 µM) and the MIC (Neisseria gonorrhoeae; strain MMX ATCC 49226, single data point, Micromyx) was 0.27 µg/mL (≈ 0.798 µM).
In the case of O=C(Nc1nnc(-c2ccc(F)cc2)o1)c1ccccc1 [MBXC1-4227], the MIC (Neisseria gonorrhoeae; Neisseria gonorrhoeae ATCC 49226, source data, individual replicates) is reported as 0.8852 µg/mL and 0.4426 µg/mL.
For [N-]=[N+]=[N-].[Na+] [Sodium Azide, reference compound], the “Average Mean Revertants/plate” value ([1]; TA100, 5 µg/plate, no S9) was 2029.0 Revertants/plate, the “Mean Revertants/plate” value ([1]; TA100, 5 µg/plate, no S9, replicates) was 1978 Revertants/plate and 2032 Revertants/plate and 2077 Revertants/plate and the “Mean Revertants/plate” value ([1]; TA100, without S9, 5 µg/plate) was 2029.0.
